# Assay results published in ChEMBL document CHEMBL4354882, “Selective Janus Kinase 2 (JAK2) Pseudokinase Ligands with a Diaminotriazole Core” (J Med Chem, 2020).
# Molecular target: T1, Tyrosine-protein kinase JAK2 (Homo sapiens, UniProt O60674)
# Assay: Binding affinity to human C-terminal His8-tagged JAK2 pseudokinase (513 to 827 residues) expressed in baculovirus infected Hi-5 cells by intrinsic tryptophan fluorescence assay
# T1 sequence (O60674 whole entry, the tested form may be a part): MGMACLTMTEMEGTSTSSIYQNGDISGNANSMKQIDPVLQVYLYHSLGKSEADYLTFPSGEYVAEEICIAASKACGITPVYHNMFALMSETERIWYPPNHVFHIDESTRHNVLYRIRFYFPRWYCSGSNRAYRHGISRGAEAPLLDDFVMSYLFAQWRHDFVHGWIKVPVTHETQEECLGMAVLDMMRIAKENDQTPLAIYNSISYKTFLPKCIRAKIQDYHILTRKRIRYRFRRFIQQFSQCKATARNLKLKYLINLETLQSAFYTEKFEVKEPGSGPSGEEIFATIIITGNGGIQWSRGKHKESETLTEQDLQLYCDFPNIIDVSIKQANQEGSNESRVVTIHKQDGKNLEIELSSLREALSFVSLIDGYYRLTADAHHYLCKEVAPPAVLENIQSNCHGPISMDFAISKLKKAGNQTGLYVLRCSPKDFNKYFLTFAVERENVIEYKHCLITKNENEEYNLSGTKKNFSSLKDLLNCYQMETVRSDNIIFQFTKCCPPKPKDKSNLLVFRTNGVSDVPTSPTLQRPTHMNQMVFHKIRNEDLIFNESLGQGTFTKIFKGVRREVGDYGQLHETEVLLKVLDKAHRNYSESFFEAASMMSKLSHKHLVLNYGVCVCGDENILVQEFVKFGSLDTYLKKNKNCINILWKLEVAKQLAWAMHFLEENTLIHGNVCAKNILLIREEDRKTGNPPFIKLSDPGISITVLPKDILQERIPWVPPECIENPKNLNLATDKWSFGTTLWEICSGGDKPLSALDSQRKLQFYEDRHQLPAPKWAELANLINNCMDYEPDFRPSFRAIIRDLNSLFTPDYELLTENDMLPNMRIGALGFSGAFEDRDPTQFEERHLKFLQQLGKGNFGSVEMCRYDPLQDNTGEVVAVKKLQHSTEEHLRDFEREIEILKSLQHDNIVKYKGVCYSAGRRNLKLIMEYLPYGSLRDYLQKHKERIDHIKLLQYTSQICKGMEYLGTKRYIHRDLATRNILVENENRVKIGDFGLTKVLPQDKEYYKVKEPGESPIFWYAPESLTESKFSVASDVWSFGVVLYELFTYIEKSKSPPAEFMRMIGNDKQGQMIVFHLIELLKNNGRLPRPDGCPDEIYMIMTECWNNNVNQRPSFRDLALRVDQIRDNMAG
row,Kd [µM],SMILES
1,0.62,CC(C)CCN1c2nc(Nc3cc(F)c(O)c(F)c3)ncc2N(C)C(=O)C1C (stereo not drawn)

# Molecular target: Tyrosine-protein kinase JAK2 (Homo sapiens, UniProt O60674, V617F)
# Assay: Binding affinity to 6XHis-tagged human JAK2 JH2 domain V617F mutant (513 to 827 residues) expressed in baculovirus infected Sf9 cells by MANT-ATP binding assay
# Chain of Tyrosine-protein kinase JAK2 (Homo sapiens, UniProt O60674, V617F) (O60674 whole entry V617F, the tested form may be a part): as the sequence (O60674 whole entry, the tested form may be a part) above, with V617F counted along it
row,SMILES,Kd [µM]
1,Nc1ncnc2c1ncn2[C@@H]1O[C@H](COP(=O)(O)OP(=O)(O)OP(=O)(O)O)[C@@H](O)[C@H]1O [ADENOSINE TRIPHOSPHATE],1.3

# Molecular target: T1, Tyrosine-protein kinase JAK2
# Design: species or system Sf9
row,Kd [µM],SMILES
1,12.3,Nc1nc(Nc2ccc(S(N)(=O)=O)cc2)nn1C(=O)Nc1cccnc1
2,4.7,Nc1nc(Nc2ccc(S(N)(=O)=O)cc2)nn1C(=O)Nc1ccccc1
3,16.7,Nc1nc(Nc2ccc(S(N)(=O)=O)cc2)nn1Cc1c(F)cccc1F
4,0.439,Nc1nc(Nc2ccc(S(N)(=O)=O)cc2)nn1C(=O)Nc1ccc(-c2ccc(C(=O)O)o2)cc1
5,47.8,CN(C(=O)n1nc(Nc2ccc(S(N)(=O)=O)cc2)nc1N)c1ccccc1
6,1.9,COC(=O)COc1ccc(NC(=O)n2nc(Nc3ccc(S(N)(=O)=O)cc3)nc2N)cc1
7,4,N#Cc1ccc(Nc2nc(N)n(C(=O)Nc3cccc(OCC(=O)O)c3)n2)cc1
8,30.5,Nc1nc(Nc2ccc(S(N)(=O)=O)cc2)nn1C(=O)Nc1ccccn1
9,7,Nc1nc(Nc2ccc(S(N)(=O)=O)cc2)nn1C(=O)Nc1ccc(-c2nnc(C(=O)O)o2)cc1
10,2,CC(C)CCN1c2nc(Nc3cc(F)c(O)c(F)c3)ncc2N(C)C(=O)C1C (stereo not drawn)

# Molecular target: T1, Tyrosine-protein kinase JAK2
# Assay: Binding affinity to wild type 6XHis-tagged human JAK2 JH2 domain (513 to 827 residues) expressed in baculovirus infected Sf9 cells by MANT-ATP binding assay
row,SMILES,Kd [µM]
1,Nc1ncnc2c1ncn2[C@@H]1O[C@H](COP(=O)(O)OP(=O)(O)OP(=O)(O)O)[C@@H](O)[C@H]1O [ADENOSINE TRIPHOSPHATE],1.3
